Experimental data: patent US10385103B2, “Cell-permeable (ICP)-SOCS3 recombinant protein and uses thereof” (CELLIVERY THERAPEUTICS, INC., priority 2014, dated 2019)

System: RAW 264.7 cells
Assay: Quantitative cell-permeability of FITC-labeled aMTD- or rPeptide-fused CRA recombinant proteins (flow cytometry)
Type: cell-based
Conditions: for Relative Ratio to aMTD AVE: cell-permeability of rPeptide-fused CRA recombinant protein relative to average of 240 aMTDs
Method in brief: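 RAW 264.7 cells were exposed to 10 μM FITC-labeled recombinant proteins, consisting of a non-functional cargo fused to aMTD or rPeptide sequences, for 1 hour at 37° C. Cells were washed three times in cold PBS and treated with 0.25% tripsin/EDTA for 20 minutes at 37° C. to strip surface-bound protein, then uptake was measured by flow cytometry.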

[1] = cell-permeability of aMTD-fused CRA recombinant protein relative to negative control (A: rP38)
[2] = cell-permeability of aMTD-fused CRA recombinant protein relative to reference CPP (B: MTM12)
[3] = cell-permeability of aMTD-fused CRA recombinant protein relative to reference CPP (C: MTD85)
[4] = cell-permeability relative to negative control rP38 (A type), aMTD-fused CRA recombinant protein, 10 μM FITC-labeled, 1 hour, 37° C., RAW 264.7 cells
[5] = cell-permeability relative to reference CPP MTD85 (C type), aMTD-fused CRA recombinant protein, 10 μM FITC-labeled, 1 hour, 37° C., RAW 264.7 cells
[6] = cell-permeability relative to reference CPP MTM12 (B type), aMTD-fused CRA recombinant protein, 10 μM FITC-labeled, 1 hour, 37° C., RAW 264.7 cells
[7] = 10 μM FITC-labeled, 1 hour, 37° C., RAW 264.7 cells

| Substance | Relative Ratio (Fold) A [1] | Relative Ratio (Fold) B [2] | Relative Ratio (Fold) C [3] | also measured |
| --- | --- | --- | --- | --- |
| 505 (AIIIVIAPAAAP; Amino acid Sequence of aMTD505) [compound 505] | 12.4 Fold | 8.3 Fold | 4.2 Fold |  |
| 543 (LLAALIAPAALP; Amino acid Sequence of aMTD543) [compound 543] | 11.7 Fold | 7.9 Fold | 4.0 Fold |  |
| 705 (IVAVALLPALAP; Amino acid Sequence of aMTD705) [compound 705] | 29.6 Fold | 19.1 Fold | 9.7 Fold |  |
| 461 (IAAVIVPAVALP; Amino acid Sequence of aMTD461) [compound 461] | 19.0 Fold | 12.7 Fold | 6.4 Fold |  |
| 183 (LLAAPVVIALAP; Amino acid Sequence of aMTD183) [compound 183] |  |  |  | Relative Ratio (Fold) A [4]: 6.0 Fold; Relative Ratio (Fold) C [5]: 2.0 Fold; Relative Ratio (Fold) B [6]: 4.0 Fold |
| 623 (VAAAIALPAIVP; Amino acid Sequence of aMTD623) [compound 623] |  |  |  | Relative Ratio (Fold) A [4]: 0.8 Fold; Relative Ratio (Fold) C [5]: 0.3 Fold; Relative Ratio (Fold) B [6]: 0.6 Fold |
| 706 (IVAVALLPAVAP; Amino acid Sequence of aMTD706) [compound 706] | 12.0 Fold | 7.0 Fold | 4.1 Fold |  |
| 442 (ALAALVPAVLVP; Amino acid Sequence of aMTD442) [compound 442] | 20.4 Fold | 12.6 Fold | 6.9 Fold |  |
| 562 (ALIAAIVPALVP; Amino acid Sequence of aMTD562) [compound 562] | 32.7 Fold | 21.8 Fold | 11.0 Fold |  |
| 727 (VALAIALPAVLP; Amino acid Sequence of aMTD727) [compound 727] | 54.7 Fold | 36.7 Fold | 18.5 Fold |  |
| 893 (VIAIPAILAAAP; Amino acid Sequence of aMTD893) [compound 893] |  |  |  | Relative Ratio (Fold) A [4]: 7.0 Fold; Relative Ratio (Fold) C [5]: 2.4 Fold; Relative Ratio (Fold) B [6]: 4.7 Fold |
| 863 (AAVVLLPIIAAP; Amino acid Sequence of aMTD863) [compound 863] | 13.8 Fold | 9.3 Fold | 4.7 Fold |  |
| 323 (IVAVALPVALAP; Amino acid Sequence of aMTD323) [compound 323] | 19.1 Fold | 12.8 Fold | 6.4 Fold |  |
| 39 (CYNTSPCTGCCY; Amino acid Sequence of rPeptide ID 39) [compound 39] |  |  |  | Relative Ratio to aMTD AVE [7]: 0.29 |
| 843 (AVLVLVAPAAAP; Amino acid Sequence of aMTD843) [compound 843] | 26.4 Fold | 17.7 Fold | 8.9 Fold |  |
| 11 (VVALAPALAALP; Amino acid Sequence of aMTD11) [compound 11] | 9.5 Fold | 6.3 Fold | 3.2 Fold |  |
| 661 (AAILAPIVAALP; Amino acid Sequence of aMTD661) [compound 661] | 21.4 Fold | 14.3 Fold | 7.2 Fold |  |
| 484 (LAVVLAAPAIVP; Amino acid Sequence of aMTD484) [compound 484] | 15.8 Fold | 10.4 Fold | 5.3 Fold |  |
| 805 (LVLIAAAPIALP; Amino acid Sequence of aMTD805) [compound 805] | 22.3 Fold | 14.9 Fold | 7.6 Fold |  |
| 643 (LALVLAAPAIVP; Amino acid Sequence of aMTD643) [compound 643] | 11.8 Fold | 7.9 Fold | 4.0 Fold |  |
| 703 (IVAVALVPALAP; Amino acid Sequence of aMTD703) [compound 703] | 29.2 Fold | 19.5 Fold | 9.9 Fold |  |

| Substance | Relative Ratio (Fold) A [1] | Relative Ratio (Fold) B [2] | Relative Ratio (Fold) C [3] | also measured |
| --- | --- | --- | --- | --- |
| 964 (ALLVIAPAIAVP; Amino acid Sequence of aMTD864) [compound 964] | 8.2 Fold | 4.8 Fold | 2.8 Fold |  |
| 809 (LIVLAAPALAAP; Amino acid Sequence of aMTD809) [compound 809] |  |  |  | Relative Ratio (Fold) A [4]: 7.0 Fold; Relative Ratio (Fold) C [5]: 2.4 Fold; Relative Ratio (Fold) B [6]: 4.7 Fold |
| 466 (IIAAAAPLAIIP; Amino acid Sequence of rPeptide ID 466) [compound 466] |  |  |  | Relative Ratio to aMTD AVE [7]: 0.52 |
| 263 (ALAVIPAAAILP; Amino acid Sequence of aMTD263) [compound 263] | 9.0 Fold | 6.0 Fold | 3.0 Fold |  |
| 896 (AILIVVAPIAAP; Amino acid Sequence of aMTD896) [compound 896] | 57.5 Fold | 38.5 Fold | 19.4 Fold |  |
| 403 (AAALVIPAAILP; Amino acid Sequence of aMTD403) [compound 403] | 25.2 Fold | 16.8 Fold | 8.5 Fold |  |
| 911 (VALALPAVVVAP; Amino acid Sequence of aMTD911) [compound 911] | 84.8 Fold | 56.8 Fold | 28.7 Fold | Relative Ratio (Fold) A (relative cell-permeability of aMTD vs reference A (not defined)): 84.8 Fold; Relative Ratio (Fold) B (relative cell-permeability of aMTD vs reference CPP B: MTM12): 56.8 Fold; Relative Ratio (Fold) C (relative cell-permeability of aMTD vs reference CPP C: MTD85): 28.7 Fold |
| 788 (AIAVAIAPVALP; Amino acid Sequence of aMTD788) [compound 788] | 9.8 Fold | 6.6 Fold | 3.3 Fold |  |
| 811 (AVVLAVPALAVP; Amino acid Sequence of aMTD811) [compound 811] | 46.5 Fold | 31.1 Fold | 15.7 Fold |  |
| 390 (VPLLVPVVPVVP; Amino acid Sequence of rPeptide ID 390) [compound 390] |  |  |  | Relative Ratio to aMTD AVE [7]: 0.41 |
| 167 (VAIAIPAALAIP; Amino acid Sequence of rPeptide ID 167) [compound 167] |  |  |  | Relative Ratio to aMTD AVE [7]: 0.50 |
| 542 (ALALIIVPAVAP; Amino acid Sequence of aMTD542) [compound 542] | 16.2 Fold | 10.8 Fold | 5.5 Fold |  |
| 143 (AVLAVPAVLVAP; Amino acid Sequence of aMTD143) [compound 143] |  |  |  | Relative Ratio (Fold) A [4]: 3.3 Fold; Relative Ratio (Fold) C [5]: 1.1 Fold; Relative Ratio (Fold) B [6]: 2.2 Fold |
| 541 (LLALIIAPAAAP; Amino acid Sequence of aMTD541) [compound 541] | 14.8 Fold | 9.9 Fold | 5.0 Fold |  |
| 29 (VLPPLPVLPVLP; Amino acid Sequence of rPeptide ID 29) [compound 29] |  |  |  | Relative Ratio to aMTD AVE [7]: 0.07; Relative Ratio (Fold) A (relative cell-permeability of rPeptide vs reference A (not defined)): 1.4 Fold; Relative Ratio (Fold) B (relative cell-permeability of rPeptide vs reference CPP B: MTM12): 0.9 Fold; Relative Ratio (Fold) C (relative cell-permeability of rPeptide vs reference CPP C: MTD85): 0.5 Fold |
| 565 (VAIVLVAPAVAP; Amino acid Sequence of aMTD565) [compound 565] | 7.5 Fold | 5.0 Fold | 2.5 Fold |  |
| 421 (AAILAAPLIAVP; Amino acid Sequence of aMTD421) [compound 421] |  |  |  | Relative Ratio (Fold) A [4]: 6.7 Fold; Relative Ratio (Fold) C [5]: 2.3 Fold; Relative Ratio (Fold) B [6]: 4.5 Fold |
| 64 (AIVALPVAVLAP; Amino acid Sequence of aMTD64) [compound 64] | 15.8 Fold | 10.6 Fold | 5.3 Fold |  |
| 827 (IAAVLAAPALVP; Amino acid Sequence of aMTD827) [compound 827] | 43.0 Fold | 28.8 Fold | 14.6 Fold |  |
| 85 (LLVLPAAALAAP; Amino acid Sequence of aMTD85) [compound 85] |  |  |  | Relative Ratio (Fold) A [4]: 1.9 Fold; Relative Ratio (Fold) C [5]: 0.7 Fold; Relative Ratio (Fold) B [6]: 1.3 Fold |
| 744 (AAVVIVAPVALP; Amino acid Sequence of aMTD744) [compound 744] | 11.0 Fold | 7.3 Fold | 3.7 Fold |  |
